Results as given in patent US9682993B2, “Anticancer compounds” (ST. JUDE CHILDREN'S RESEARCH HOSPITAL, priority 2012, dated 2017).

Assays:
Type in all cases: cell-based
JeKo-1 = assay: Drug combination assay, JeKo-1; conditions: inhibitor + compound 19
Experimental: (§1) Preliminary cytotoxic screenings for each drug used in drug combination assays were performed to determine their cytotoxic dose range. […] Eight concentrations were established by 1:3 serial dilutions of the single drugs and their combinations with the splicing modulators. All drug concentrations were evaluated in triplicate in 96-well cell culture plates. Assays of individual drugs and drug combinations were run on the same tissue culture plate. Cell viability was determined using the CellTiter-Glo reagent. Drug interactions, in terms of synergism, additive effect, or antagonism, were based on the drugs' Combination Index (CI) (Chou et al., Adv. Enzyme Regul. 1984, 22, 27).
(§2) Luminescence data obtained from the cell viability determinations were formatted per the requirements of the analytical software (viability data range: >0 and <1). The formatted data were analyzed with the software CalcuSyn 2.1 (Biosoft, Cambridge, UK), which provides quantitative CI values for the drug interaction analyses (see ranges in Supplementary Table S2). […] Therefore, in these two cases the drug interaction was evaluated by comparing the IC50 value of Sudemycin with that of the IC50 values resulting from the serial dilutions of the splicing modulator combined with a constant dose of the non-toxic drug.

SK-MEL-2 = assay: Drug combination assay, SK-MEL-2
Experimental: as §1, with “reagent.” for “reagent. Drug interactions, in terms of synergism, additive effect, or antagonism, were based on the drugs' Combination Index (CI) (Chou et al., Adv. Enzyme Regul. 1984, 22, 27).”
(§3) Luminescence data obtained from the cell viability determinations were formatted per the requirements of the analytical software (viability data range: >0 and <1). The formatted data were analyzed with the software CalcuSyn 2.1 (Biosoft, Cambridge, UK), which provides quantitative CI values for the drug interaction analyses (see ranges in Supplementary Table S2).

PC-3 = assay: Drug combination assay, PC-3; conditions: inhibitor + compound 19
Experimental: as §1, §2

WiDr = assay: Drug combination assay, WiDr; conditions: inhibitor + compound 19
Experimental: as §1, §2

HeLa = assay: Drug combination assay, HeLa; conditions: HeLa; inhibitor + compound 19
Experimental: as §1, §2

Sk-N-AS = assay: Drug combination assay, Sk-N-AS neuroblastoma; conditions: Sk-N-AS; inhibitor + compound 19
Experimental: as §1, with “reagent.” for “reagent. Drug interactions, in terms of synergism, additive effect, or antagonism, were based on the drugs' Combination Index (CI) (Chou et al., Adv. Enzyme Regul. 1984, 22, 27).”
as §3

cell lines investigated = assay: Drug combination assays, cell line not stated
Experimental: as §1, with “reagent.” for “reagent. Drug interactions, in terms of synergism, additive effect, or antagonism, were based on the drugs' Combination Index (CI) (Chou et al., Adv. Enzyme Regul. 1984, 22, 27).”
as §3

CO[C@H]1C[C@@H]2CC[C@@H](C)[C@@](O)(O2)C(=O)C(=O)N2CCCC[C@H]2C(=O)O[C@H]([C@H](C)C[C@@H]2CC[C@@H](OC(=O)C(C)(CO)CO)[C@H](OC)C2)CC(=O)[C@H](C)/C=C(\C)[C@@H](O)[C@@H](OC)C(=O)[C@H](C)C[C@H](C)/C=C/C=C/C=C/1C [Temsirolimus]
CI of 19 + inhibitor (JeKo-1): 0.37
CI in SK-MEL-2 with compound 19 (SK-MEL-2; Combination Index at ED50, CalcuSyn 2.1, listed drug + compound 19): 0.68
CI of 19 + inhibitor (SK-MEL-2; SK-MEL-2, inhibitor + compound 19): 0.68
Interaction Type (SK-MEL-2; listed drug combined with compound 19, Ineffective = drug IC50 much higher than 1 μM): Synergism (0.3-0.7)
CI of 19 + inhibitor (PC-3): 0.57
CI of 19 + inhibitor (WiDr): 0.44
CI of 19 + inhibitor (HeLa): 0.35
CI of 19 + inhibitor (Sk-N-AS): 0.58
drug interaction with compound 20 (cell lines investigated): demonstrated synergy
